Reference: PubChem BioAssay AID248 (DTP/NCI, 2004)
Values joined by “and” are separate entries in the source; they are usually repeats but may differ in a detail not shown here. Equal values may be shown once. Inconclusive results and toxic doses are left out.

Test system: L1210 leukemia ip in BDF1 mice, survival T/C
Assay: NCI In Vivo Anticancer Drug Screen. Data for tumor model L1210 Leukemia (intraperitoneal) in B6D2F1 (BDF1) mice
Details: higher = longer survival
Method in brief: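 In this screen, tumor-bearing mice given compound are compared to those given vehicle, and their survival values are reported as a treated-to-control quotient.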

[1] = endpoint: mean survival time, dose: 100.0 mg/kg/injection, schedule: Q04DX003 (ip), vehicle: Klucel (hydroxypropylcellulose) (HPC)
[2] = endpoint: mean survival time, dose: 200.0 mg/kg/injection, schedule: Q04DX003 (ip), vehicle: Klucel (hydroxypropylcellulose) (HPC)
[3] = endpoint: mean survival time, dose: 400.0 mg/kg/injection, schedule: Q04DX003 (ip), vehicle: Klucel (hydroxypropylcellulose) (HPC)
[4] = endpoint: mean survival time, dose: 100.0 mg/kg/injection, schedule: Q01DX001 (ip), vehicle: carboxymethylcellulose (CMC)
[5] = endpoint: mean survival time, dose: 200.0 mg/kg/injection, schedule: Q01DX001 (ip), vehicle: carboxymethylcellulose (CMC)
[6] = endpoint: mean survival time, dose: 400.0 mg/kg/injection, schedule: Q01DX001 (ip), vehicle: carboxymethylcellulose (CMC)
[7] = endpoint: mean survival time, dose: 100.0 mg/kg/injection, schedule: Q01DX009 (ip), vehicle: Klucel (hydroxypropylcellulose) (HPC)
[8] = endpoint: mean survival time, dose: 200.0 mg/kg/injection, schedule: Q01DX009 (ip), vehicle: Klucel (hydroxypropylcellulose) (HPC)
[9] = endpoint: mean survival time, dose: 400.0 mg/kg/injection, schedule: Q01DX009 (ip), vehicle: Klucel (hydroxypropylcellulose) (HPC)
[10] = endpoint: mean survival time, dose: 100.0 mg/kg/injection, schedule: Q01DX009 (ip), vehicle: saline
[11] = endpoint: mean survival time, dose: 100.0 mg/kg/injection, schedule: Q04DX003 (ip), vehicle: saline
[12] = endpoint: mean survival time, dose: 200.0 mg/kg/injection, schedule: Q01DX009 (ip), vehicle: saline
[13] = endpoint: mean survival time, dose: 200.0 mg/kg/injection, schedule: Q04DX003 (ip), vehicle: saline
[14] = endpoint: mean survival time, dose: 400.0 mg/kg/injection, schedule: Q04DX003 (ip), vehicle: saline

## COc1ccc(-c2nc3ccccc3s2)cc1OC
[1]
  T/C: 95 % of control and 105 % of control
[2]
  T/C: 98 % of control and 102 % of control
[3]
  T/C: 98 % of control and 105 % of control

## CC(=O)OCCC/C(=C\c1ccc2ccccc2c1)[N+](=O)[O-]
[4]
  T/C: 98 % of control
[5]
  T/C: 93 % of control
[6]
  T/C: 89 % of control

## CC1OC(OC2CC(O)C3(CO)C4C(O)CC5(C)C(C6=CC(=O)OC6)CCC5(O)C4CCC3(O)C2)C(O)C(O)C1O (stereo not drawn)
endpoint: mean survival time, dose: 0.5 mg/kg/injection, schedule: Q01DX009 (ip), vehicle: saline
  T/C: 100 % of control
endpoint: mean survival time, dose: 1.0 mg/kg/injection, schedule: Q01DX009 (ip), vehicle: saline
  T/C: 121 % of control
endpoint: mean survival time, dose: 1.25 mg/kg/injection, schedule: Q01DX001 (ip), vehicle: saline
  T/C: 100 % of control
endpoint: mean survival time, dose: 2.0 mg/kg/injection, schedule: Q01DX009 (ip), vehicle: saline
  T/C: 113 % of control
endpoint: mean survival time, dose: 2.5 mg/kg/injection, schedule: Q01DX001 (ip), vehicle: saline
  T/C: 104 % of control
endpoint: mean survival time, dose: 4.0 mg/kg/injection, schedule: Q01DX009 (ip), vehicle: saline
  T/C: 106 % of control
endpoint: mean survival time, dose: 5.0 mg/kg/injection, schedule: Q01DX001 (ip), vehicle: saline
  T/C: 101 % of control
endpoint: mean survival time, dose: 6.25 mg/kg/injection, schedule: Q01DX001 (ip), vehicle: saline
  T/C: 105 % of control
endpoint: mean survival time, dose: 12.5 mg/kg/injection, schedule: Q01DX001 (ip), vehicle: saline
  T/C: 106 % of control
endpoint: median survival time, dose: 1.0 mg/kg/injection, schedule: Q01DX005 (ip), vehicle: water
  T/C: 105 % of control
endpoint: median survival time, dose: 2.0 mg/kg/injection, schedule: Q01DX005 (ip), vehicle: water
  T/C: 104 % of control
endpoint: median survival time, dose: 4.0 mg/kg/injection, schedule: Q01DX005 (ip), vehicle: water
  T/C: 109 % of control

## Cc1cc(OCCOC(=O)Nc2ccc(F)cc2)ccc1Cl
[7]
  T/C: 106 % of control
[8]
  T/C: 101 % of control
[9]
  T/C: 101 % of control

## CCSc1ncc(C(N)=O)c(N)n1
[1]
  T/C: 97 % of control
[2]
  T/C: 100 % of control
[3]
  T/C: 92 % of control

## CC1(C)C/C(=C\c2ccc(Cl)cc2)C(=O)c2ccccc21
[7]
  T/C: 97 % of control
[1]
  T/C: 95 % of control
[8]
  T/C: 93 % of control
[2]
  T/C: 92 % of control
[9]
  T/C: 97 % of control
[3]
  T/C: 92 % of control

## Cc1ccc(S(=O)(=O)N=S2CCCC2)cc1
[7]
  T/C: 97 % of control
[8]
  T/C: 102 % of control
[9]
  T/C: 102 % of control

## FC(F)(F)C(F)(F)c1nc2nc(Cl)c(Cl)nc2[nH]1
endpoint: mean survival time, dose: 50.0 mg/kg/injection, schedule: Q01DX009 (ip), vehicle: other
  T/C: 106 % of control
endpoint: mean survival time, dose: 100.0 mg/kg/injection, schedule: Q01DX009 (ip), vehicle: other
  T/C: 92 % of control
endpoint: mean survival time, dose: 100.0 mg/kg/injection, schedule: Q04DX003 (ip), vehicle: other
  T/C: 120 % of control
endpoint: mean survival time, dose: 132.0 mg/kg/injection, schedule: Q04DX003 (ip), vehicle: other
  T/C: 94 % of control
endpoint: mean survival time, dose: 200.0 mg/kg/injection, schedule: Q04DX003 (ip), vehicle: other
  T/C: 114 % of control

## COC(=O)c1cccc(C(=O)CC(=O)c2ccccc2)c1
[7]
  T/C: 90 % of control
[8]
  T/C: 95 % of control
[9]
  T/C: 88 % of control

## CNC(=O)Nc1ccc(Nc2ccccc2)cc1
endpoint: mean survival time, dose: 100.0 mg/kg/injection, schedule: Q04DX002 (ip), vehicle: Klucel (hydroxypropylcellulose) (HPC)
  T/C: 105 % of control
endpoint: mean survival time, dose: 200.0 mg/kg/injection, schedule: Q04DX002 (ip), vehicle: Klucel (hydroxypropylcellulose) (HPC)
  T/C: 97 % of control
endpoint: mean survival time, dose: 400.0 mg/kg/injection, schedule: Q04DX002 (ip), vehicle: Klucel (hydroxypropylcellulose) (HPC)
  T/C: 91 % of control

## C=C(C)CSc1ncnc2nc[nH]c12
endpoint: mean survival time, dose: 52.0 mg/kg/injection, schedule: Q01DX Z (ip), vehicle: other
  T/C: 112 % of control
endpoint: mean survival time, dose: 80.0 mg/kg/injection, schedule: Q01DX Z (ip), vehicle: other
  T/C: 112 % of control
endpoint: mean survival time, dose: 120.0 mg/kg/injection, schedule: Q01DX Z (ip), vehicle: other
  T/C: 124 % of control

## NC(N)=Nc1ccc(/C=C2\C=Cc3ccccc32)cc1
[5]
  T/C: 101 % of control

## O=[N+]([O-])Nc1ccnnc1
endpoint: mean survival time, dose: 100.0 mg/kg/injection, schedule: Q01DX001 (ip), vehicle: saline
  T/C: 94 % of control
endpoint: mean survival time, dose: 200.0 mg/kg/injection, schedule: Q01DX001 (ip), vehicle: saline
  T/C: 96 % of control
endpoint: mean survival time, dose: 400.0 mg/kg/injection, schedule: Q01DX001 (ip), vehicle: saline
  T/C: 96 % of control

## O=C1N(C[P+](c2ccccc2)(c2ccccc2)c2ccccc2)CCCN1C[P+](c1ccccc1)(c1ccccc1)c1ccccc1
endpoint: mean survival time, dose: 1.56 mg/kg/injection, schedule: Q01DX009 (ip), vehicle: saline
  T/C: 96 % of control
endpoint: mean survival time, dose: 1.56 mg/kg/injection, schedule: Q04DX002 (ip), vehicle: saline
  T/C: 150 % of control
endpoint: mean survival time, dose: 3.12 mg/kg/injection, schedule: Q01DX005 (ip), vehicle: saline
  T/C: 100 % of control
endpoint: mean survival time, dose: 3.12 mg/kg/injection, schedule: Q01DX009 (ip), vehicle: saline
  T/C: 93 % of control
endpoint: mean survival time, dose: 3.12 mg/kg/injection, schedule: Q04DX002 (ip), vehicle: saline
  T/C: 88 % of control
endpoint: mean survival time, dose: 6.25 mg/kg/injection, schedule: Q01DX005 (ip), vehicle: saline
  T/C: 94 % of control
endpoint: mean survival time, dose: 6.25 mg/kg/injection, schedule: Q01DX009 (ip), vehicle: saline
  T/C: 86 % of control
endpoint: mean survival time, dose: 6.25 mg/kg/injection, schedule: Q04DX002 (ip), vehicle: saline
  T/C: 95 % of control

## O=c1cc(NCc2ccccc2Cl)[nH]c(=O)[nH]1
endpoint: mean survival time, dose: 100.0 mg/kg/injection, schedule: Q01DX001 (ip), vehicle: gum acacia
  T/C: 93 % of control
endpoint: mean survival time, dose: 200.0 mg/kg/injection, schedule: Q01DX001 (ip), vehicle: gum acacia
  T/C: 95 % of control
endpoint: mean survival time, dose: 400.0 mg/kg/injection, schedule: Q01DX001 (ip), vehicle: gum acacia
  T/C: 101 % of control

## C=CCOC(=O)Nc1ccc(S(=O)(=O)CC)cc1
[4]
  T/C: 94 % of control
[5]
  T/C: 102 % of control
[6]
  T/C: 91 % of control

## NC(=S)NNC1CCCCC1
endpoint: mean survival time, dose: 22.0 mg/kg/injection, schedule: Q01DX Z (ip), vehicle: methylcellulose (MC)
  T/C: 94 % of control
endpoint: mean survival time, dose: 33.0 mg/kg/injection, schedule: Q01DX Z (ip), vehicle: methylcellulose (MC)
  T/C: 117 % of control
endpoint: mean survival time, dose: 50.0 mg/kg/injection, schedule: Q01DX Z (ip), vehicle: methylcellulose (MC)
  T/C: 93 % of control

## O=c1[nH]cc(-c2ccccc2)c(=O)[nH]1
[10]
  T/C: 98 % of control
[11]
  T/C: 95 % of control
[12]
  T/C: 104 % of control
[13]
  T/C: 95 % of control
endpoint: mean survival time, dose: 400.0 mg/kg/injection, schedule: Q01DX009 (ip), vehicle: saline
  T/C: 104 % of control
[14]
  T/C: 101 % of control

## CC1=C(CC/C(C)=C/CCC(=O)O)C(C)(C)CCC1
endpoint: mean survival time, dose: 50.0 mg/kg/injection, schedule: Q01DX009 (ip), vehicle: saline
  T/C: 100 % of control
[10]
  T/C: 100 % of control
[11]
  T/C: 116 % of control
[12]
  T/C: 98 % of control
[13]
  T/C: 100 % of control
[14]
  T/C: 111 % of control

## O=C(CCl)N1CCN(C(=O)CCl)CC1
endpoint: mean survival time, dose: 10.0 mg/kg/injection, schedule: Q01DX009 (ip), vehicle: Klucel (hydroxypropylcellulose) (HPC)
  T/C: 110 % of control
endpoint: mean survival time, dose: 20.0 mg/kg/injection, schedule: Q01DX009 (ip), vehicle: Klucel (hydroxypropylcellulose) (HPC)
  T/C: 101 % of control
endpoint: mean survival time, dose: 20.0 mg/kg/injection, schedule: Q04DX003 (ip), vehicle: Klucel (hydroxypropylcellulose) (HPC)
  T/C: 104 % of control
endpoint: mean survival time, dose: 40.0 mg/kg/injection, schedule: Q04DX003 (ip), vehicle: Klucel (hydroxypropylcellulose) (HPC)
  T/C: 106 % of control

## O=[N+]([O-])c1ccc([As](=O)(O)c2ccc([N+](=O)[O-])cc2)cc1
endpoint: mean survival time, dose: 75.0 mg/kg/injection, schedule: Q01DX001 (ip), vehicle: saline
  T/C: 95 % of control
endpoint: mean survival time, dose: 150.0 mg/kg/injection, schedule: Q01DX001 (ip), vehicle: saline
  T/C: 100 % of control

## Nc1nc(-c2ccccc2)c(CCCCc2ccccc2)c(=O)[nH]1
endpoint: mean survival time, dose: 50.0 mg/kg/injection, schedule: Q01DX Z (ip), vehicle: carboxymethylcellulose (CMC)
  T/C: 97 % of control
endpoint: mean survival time, dose: 200.0 mg/kg/injection, schedule: Q01DX Z (ip), vehicle: carboxymethylcellulose (CMC)
  T/C: 89 % of control
